Assay results reported in ChEMBL document CHEMBL4339250 (J Nat Prod, 2019).
Activity calls are given as the source filed them. The rule behind the calls is not given here.

Key:
[1] = biological target: T1, Peroxisome proliferator-activated receptor alpha (Homo sapiens) (UniProt Q07869); experiment: Agonist activity at human PPARalpha expressed in African green monkey COS7 cells assessed as increase in receptor transcriptional activity at 10 uM by luciferase reporter gene assay relative to WY-14643; format: cell-based
T1 sequence (whole entry): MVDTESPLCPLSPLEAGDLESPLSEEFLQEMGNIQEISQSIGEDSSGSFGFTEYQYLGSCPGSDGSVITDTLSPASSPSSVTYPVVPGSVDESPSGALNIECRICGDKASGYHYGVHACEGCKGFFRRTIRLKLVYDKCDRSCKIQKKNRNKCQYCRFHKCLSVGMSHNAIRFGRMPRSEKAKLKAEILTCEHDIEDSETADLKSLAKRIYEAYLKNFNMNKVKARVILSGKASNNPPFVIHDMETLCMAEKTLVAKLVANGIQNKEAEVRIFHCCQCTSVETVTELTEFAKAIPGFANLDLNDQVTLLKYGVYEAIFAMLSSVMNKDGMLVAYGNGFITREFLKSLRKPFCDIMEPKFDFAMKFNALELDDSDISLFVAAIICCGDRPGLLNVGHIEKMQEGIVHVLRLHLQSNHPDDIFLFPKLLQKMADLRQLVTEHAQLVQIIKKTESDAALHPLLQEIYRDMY

[2] = biological target: T2, Peroxisome proliferator-activated receptor alpha (Homo sapiens, UniProt Q07869); experiment: Agonist activity at human PPARalpha expressed in African green monkey COS7 cells assessed as increase in receptor transcriptional activity by luciferase reporter gene assay relative to WY-14643; format: cell-based
T2 sequence (Q07869 whole entry): T1 sequence (whole entry)

[3] = biological target: T3, Peroxisome proliferator-activated receptor gamma (Homo sapiens, UniProt P37231); experiment: Agonist activity at human PPARgamma expressed in African green monkey COS7 cells assessed as increase in receptor transcriptional activity by luciferase reporter gene assay relative to rosiglitazone; format: cell-based
T3 sequence (P37231 whole entry): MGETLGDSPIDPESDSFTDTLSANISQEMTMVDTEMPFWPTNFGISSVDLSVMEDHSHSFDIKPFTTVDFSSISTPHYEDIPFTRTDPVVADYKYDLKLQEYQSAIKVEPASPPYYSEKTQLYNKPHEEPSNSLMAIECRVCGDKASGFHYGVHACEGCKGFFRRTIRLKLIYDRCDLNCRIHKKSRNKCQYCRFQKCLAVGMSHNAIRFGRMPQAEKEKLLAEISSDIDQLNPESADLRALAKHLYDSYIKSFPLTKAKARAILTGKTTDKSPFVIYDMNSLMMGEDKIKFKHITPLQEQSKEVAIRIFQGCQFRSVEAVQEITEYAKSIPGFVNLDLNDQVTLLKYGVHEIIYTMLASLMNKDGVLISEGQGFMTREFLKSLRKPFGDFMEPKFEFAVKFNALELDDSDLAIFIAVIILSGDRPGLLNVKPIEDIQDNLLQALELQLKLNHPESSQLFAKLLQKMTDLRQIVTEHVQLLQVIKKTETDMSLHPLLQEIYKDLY

Neutrophil [4] = experiment: Cytotoxicity against human neutrophils assessed as reduction in cell viability at 30 uM incubated for 24 hrs by MTT assay; format: cell-based
HUVEC [5] = experiment: Cytotoxicity against HUVEC assessed as reduction in cell viability at 30 uM incubated for 24 hrs by MTT assay; format: cell-based; settings: human
[6] = Cytotoxicity against human neutrophils assessed as cell viability at 30 uM incubated for 24 hrs by MTT assay; format: cell-based, Neutrophil; settings: read-out: Activity
[7] = Cytotoxicity against HUVEC assessed as cell viability at 30 uM incubated for 24 hrs by MTT assay; format: cell-based; settings: human, HUVEC cells; read-out: Activity
Neutrophil [8] = experiment: Induction of apoptosis in human neutrophils at 30 uM incubated for 24 hrs by annexin V-FITC and propidium iodide staining based flow cytometry; format: cell-based
HUVEC [9] = experiment: Induction of apoptosis in HUVEC at 30 uM incubated for 24 hrs by annexin V-FITC and propidium iodide staining based flow cytometry; format: cell-based; settings: human
HUVEC [10] = experiment: Anti-inflammatory activity in HUVEC assessed as reduction in TNFalpha-stimulated neutrophil-HUVEC interactions by measuring decrease in neutrophil adhesion to endothelial cells at 1 uM pretreated for 20 hrs before TNFalpha stimulation for 24 hrs using freshly isolated neutrophils perfused over endothelial monolayers for 5 mins by phase contrast microscopy; format: functional, cell-based; settings: Homo sapiens
HUVEC [11] = experiment: Anti-inflammatory activity in HUVEC assessed as reduction in TNFalpha-stimulated neutrophil-HUVEC interactions by measuring decrease in mononuclear leukocyte to endothelial cells at 1 uM pretreated for 20 hrs before TNFalpha stimulation for 24 hrs using freshly isolated mononuclear leukocytes perfused over endothelial monolayers for 5 mins by phase contrast microscopy; format: functional, cell-based; settings: Homo sapiens
HUVEC [12] = experiment: Anti-inflammatory activity in HUVEC assessed as reduction in TNFalpha-stimulated neutrophil-HUVEC interactions by measuring decrease in mononuclear leukocyte to endothelial cells pretreated for 20 hrs before TNFalpha stimulation for 24 hrs using freshly isolated mononuclear leukocytes perfused over endothelial monolayers for 5 mins by phase contrast microscopy; format: functional, cell-based; settings: Homo sapiens
HUVEC [13] = experiment: Anti-inflammatory activity in HUVEC assessed as reduction in TNFalpha-stimulated neutrophil-HUVEC interactions by measuring decrease in mononuclear leukocyte to endothelial cells at 10 uM treated for 20 hrs post 48 hrs after control siRNA transfection followed by TNFalpha stimulation for 24 hrs using freshly isolated mononuclear leukocytes perfused over endothelial monolayers for 5 mins by phase contrast microscopy; format: functional, cell-based; settings: Homo sapiens
HUVEC [14] = experiment: Anti-inflammatory activity in HUVEC assessed as reduction in TNFalpha-stimulated neutrophil-HUVEC interactions by measuring decrease in mononuclear leukocyte to endothelial cells at 10 uM treated for 20 hrs post 48 hrs after PPARalpha siRNA transfection followed by TNFalpha stimulation for 24 hrs using freshly isolated mononuclear leukocytes perfused over endothelial monolayers for 5 mins by phase contrast microscopy; format: functional, cell-based; settings: Homo sapiens
HUVEC [15] = experiment: Anti-inflammatory activity in HUVEC assessed as reduction in TNFalpha-stimulated neutrophil-HUVEC interactions by measuring decrease in mononuclear leukocyte to endothelial cells at 10 uM treated for 20 hrs post 48 hrs after PPARgamma siRNA transfection followed by TNFalpha stimulation for 24 hrs using freshly isolated mononuclear leukocytes perfused over endothelial monolayers for 5 mins by phase contrast microscopy; format: functional, cell-based; settings: Homo sapiens
HUVEC [16] = experiment: Anti-inflammatory activity in HUVEC assessed as reduction in TNFalpha-stimulated neutrophil-HUVEC interactions by measuring decrease in mononuclear leukocyte to endothelial cells at 10 uM treated for 20 hrs post 48 hrs after RXRalpha siRNA transfection followed by TNFalpha stimulation for 24 hrs using freshly isolated mononuclear leukocytes perfused over endothelial monolayers for 5 mins by phase contrast microscopy; format: functional, cell-based; settings: Homo sapiens
[17] = biological target: RXR alpha/PPAR gamma (Homo sapiens) (UniProt P37231+P19793); experiment: Induction of RXRalpha/PPARgamma interaction in HUVEC at 10 uM pretreated for 20 hrs before TNFalpha stimulation by immunoprecipitation and Western blotting analysis; format: cell-based
HUVEC [18] = experiment: Anti-inflammatory activity in HUVEC assessed as reduction in TNFalpha-stimulated neutrophil-HUVEC interactions by measuring decrease in mononuclear leukocyte to endothelial cells at 10 uM pretreated for 20 hrs before TNFalpha stimulation for 24 hrs using freshly isolated mononuclear leukocytes perfused over endothelial monolayers for 5 mins in presence of PPARgamma antagonist GW9662 by phase contrast microscopy; format: functional, cell-based; settings: Homo sapiens
HUVEC [19] = experiment: Anti-inflammatory activity in HUVEC assessed as reduction in TNFalpha-stimulated neutrophil-HUVEC interactions by measuring decrease in mononuclear leukocyte to endothelial cells at 10 uM pretreated for 20 hrs before TNFalpha stimulation for 24 hrs using freshly isolated mononuclear leukocytes perfused over endothelial monolayers for 5 mins in presence of PPARalpha antagonist GW6471 by phase contrast microscopy; format: functional, cell-based; settings: Homo sapiens
[20] = biological target: T4, Peroxisome proliferator-activated receptor gamma (Homo sapiens) (UniProt P37231); settings: at 10 µM
T4 sequence (whole entry): T3 sequence (P37231 whole entry)

HUVEC [21] = experiment: Anti-inflammatory activity in HUVEC assessed as reduction in TNFalpha-stimulated neutrophil-HUVEC interactions by measuring decrease in mononuclear leukocyte to endothelial cells at 1 uM treated for 20 hrs post 48 hrs after control siRNA transfection followed by TNFalpha stimulation for 24 hrs using freshly isolated mononuclear leukocytes perfused over endothelial monolayers for 5 mins by phase contrast microscopy; format: functional, cell-based; settings: Homo sapiens
HUVEC [22] = experiment: Anti-inflammatory activity in HUVEC assessed as reduction in TNFalpha-stimulated neutrophil-HUVEC interactions by measuring decrease in mononuclear leukocyte to endothelial cells at 1 uM treated for 28 hrs post 48 hrs after PPARalpha siRNA transfection followed by TNFalpha stimulation for 24 hrs using freshly isolated mononuclear leukocytes perfused over endothelial monolayers for 5 mins by phase contrast microscopy; format: functional, cell-based; settings: Homo sapiens
Neutrophil [23] = experiment: Cytotoxicity against human neutrophils assessed as induction of cell damage at 30 uM incubated for 24 hrs by MTT assay; format: cell-based
HUVEC [24] = experiment: Cytotoxicity against HUVEC assessed as induction of cell damage at 30 uM incubated for 24 hrs by MTT assay; format: cell-based; settings: human

C/C(=C\CC[C@]1(C)CCc2cc(OCc3ccccc3)cc(C)c2O1)CC/C=C(\C)C(=O)OCc1ccccc1
Efficacy [1]: 28%

C/C(=C\CC[C@]1(C)CCc2cc(O)cc(C)c2O1)CC/C=C(\C)C(=O)O
Efficacy [1]: 107%
EC50 ([2]; read-out: EC50): 184 nM
EC50 ([3]; read-out: EC50): 84 nM
Activity (Neutrophil [4]): Non-Toxic
Activity (HUVEC [5]): Non-Toxic
viability at 24 h, 30 µM [6]: 89.2%
viability at 24 h, 30 µM [7]: 73.4%
Activity (Neutrophil [8]): Non-Toxic
Activity (HUVEC [9]): Non-Toxic
Activity (HUVEC [10]): inactive
Activity (HUVEC [11]): Active
IC50 (HUVEC [12]): 4900 nM
Activity (HUVEC [13]): Active
Activity (HUVEC [14]): Active
Activity (HUVEC [15]): inactive
Activity (HUVEC [16]): inactive
Activity [17]: Active
Activity (HUVEC [18]): inactive
Activity (HUVEC [19]): Active
Efficacy [20]: 95%

C/C(=C\CC[C@]1(C)CCc2cc(OCC(N)=O)cc(C)c2O1)CC/C=C(\C)C(=O)OCc1ccccc1
Efficacy [1]: 18%

CCCOC(=O)/C(C)=C/CC/C(C)=C/CC[C@]1(C)CCc2cc(O)cc(C)c2O1
Efficacy [1]: 49%
EC50 ([3]; read-out: EC50): 991 nM
Efficacy [20]: 86%

Cc1cccc(Nc2cc(Cl)nc(SCC(=O)O)n2)c1C [PIRINIXIC ACID]
EC50 [3]: Not Active
Activity (HUVEC [10]): inactive

COC(=O)C(OC(=O)/C(C)=C/CC/C(C)=C/CC[C@]1(C)CCc2cc(OC)cc(C)c2O1)C(=O)OC
Efficacy [1]: 76%
EC50 ([2]; read-out: EC50): 1620 nM
Efficacy [20]: 37%

COC(=O)/C(C)=C/CC/C(C)=C/CC[C@]1(C)CCc2cc(O)cc(C)c2O1
Efficacy [1]: 27%
Efficacy [20]: 35%

COC(=O)COC(=O)/C(C)=C/CC/C(C)=C/CC[C@]1(C)CCc2cc(OC)cc(C)c2O1
Efficacy [1]: 39%
Efficacy [20]: 24%

CN(CCOc1ccc(CC2SC(=O)NC2=O)cc1)c1ccccn1 (stereo unspecified) [ROSIGLITAZONE]
Efficacy [1]: inactive
EC50 [2]: Not Active
Activity (Neutrophil [4]): Toxic
Activity (HUVEC [5]): Toxic
Activity (HUVEC [10]): inactive
Activity (HUVEC [11]): Active
inhibition (HUVEC [12]): Dose-dependent effect
Activity (HUVEC [21]): Active
Activity (HUVEC [22]): Active

COC(=O)COC(=O)/C(C)=C/CC/C(C)=C/CC[C@]1(C)CCc2cc(OC(=O)c3ccccc3)cc(C)c2O1
Efficacy [1]: 14%

COc1cc(C)c2c(c1)CC[C@@](C)(CC/C=C(\C)CC/C=C(\C)C(=O)O)O2
Efficacy [1]: 82%
EC50 ([2]; read-out: EC50): 1000 nM
EC50 ([3]; read-out: EC50): 1000 nM
Activity (Neutrophil [23]): Toxic
Activity (HUVEC [24]): Toxic
Efficacy [20]: 55%

Cc1cc(SCc2sc(-c3ccc(C(F)(F)F)cc3)nc2C)ccc1OCC(=O)O
Efficacy [1]: inactive

CCCOc1cc(C)c2c(c1)CC[C@@](C)(CC/C=C(\C)CC/C=C(\C)C(=O)O)O2
Efficacy [1]: 191%
EC50 ([2]; read-out: EC50): 1000 nM
EC50 ([3]; read-out: EC50): 1690 nM
Efficacy [20]: 88%

CC1=C(/C=C/C(C)=C\C=C\C(C)=C\C(=O)O)C(C)(C)CCC1
Efficacy [1]: inactive
